Laboratory results published in ChEMBL document CHEMBL1123114, “Structure-activity relationships of arylimidazopyridine cardiotonics: discovery and inotropic activity of 2-[2-methoxy-4-(methylsulfinyl)phenyl]-1H-imidazo[4,5-c]pyridine” (1985).

Key:
Felis catus [1] = species on record: Felis catus; assay: Compound tested for contractility in isolated cat papillary muscle at 10 e-5 M.; format: functional
Felis catus [2] = species on record: Felis catus; assay: Compound tested for contractility in isolated cat papillary muscle at 10 e-4 M.; format: functional
Felis catus [3] = species on record: Felis catus; assay: Response ratio = (percent increase to drug)/(percent increase to 10 E-5 M isoproterenol); format: functional
Felis catus [4] = species on record: Felis catus; assay: Response ratio = (percent increase to drug)/(percent increase to 10 E-4 M isoproterenol); format: functional
Canis familiaris [5] = assay: Percent change in heart rate in anesthetized dog; format: functional, Canis lupus familiaris
Canis familiaris [6] = assay: Compound tested for contractility in anesthetized dog when administered intravenously.; format: functional; settings: Canis lupus familiaris, iv
Canis familiaris [7] = assay: Percent change in mean arterial blood pressure in anesthetized dog; format: functional, Canis lupus familiaris

| Compound | Control (Felis catus [1]) [%] | Control (Felis catus [2]) [%] | Response ratio (Felis catus [3]) | Response ratio (Felis catus [4]) | Change (Canis familiaris [5]) [%] | ED50 (Canis familiaris [6]) [mg/kg] | Change (Canis familiaris [7]) [%] |
| --- | --- | --- | --- | --- | --- | --- | --- |
| c1ccc(-c2nc3ccccc3[nH]2)cc1 | 105 | 134 | 0.07 | 0.47 |  |  |  |
| Cc1ccc(-c2nc3cc[nH]cc-3n2)cc1 | 97 | 196 | -0.04 | 0.96 |  |  |  |
| COc1cccc(OC)c1-c1nc2cc[nH]cc-2n1 | 78 | 184 | -0.31 | 1.16 |  |  |  |
| COc1cc(OC)cc(-c2nc3cc[nH]cc-3n2)c1 | 115 | 179 | 0.21 | 1.1 |  |  |  |
| COc1ccc(-c2nc3cc[nH]cc-3n2)c(OCCSC)c1 | 122 | 140 | 0.3 | 0.55 | 4 | 1.1 | -21 |
| COc1cc(C(F)(F)F)ccc1-c1nc2cc[nH]cc-2n1 | 139 | 135 | 0.54 | 0.49 | 10 | 0.009 | -12 |
| COCCCOc1cc(OC)ccc1-c1nc2cc[nH]cc-2n1 | 99 | 147 | -0.01 | 0.65 |  |  |  |
| CCOc1cc(S(C)(=O)=O)ccc1-c1nc2cc[nH]cc-2n1 | 137 | 198 | 0.51 | 1.36 | 7 | 0.07 | -11 |
| COc1cc(OC)c(-c2nc3cc[nH]cc-3n2)cc1OC | 108 | 129 | 0.12 | 0.4 |  |  |  |
| N#Cc1ccc(-c2nc3ccncc3[nH]2)cc1 | 112 | 164 | 0.16 | 0.89 |  |  |  |
| Nc1cc(-c2ccncc2)c[nH]c1=O [INAMRINONE] | 143 | 190 | 0.61 | 1.25 | 11 | 1.3 | -9 |
| COc1ccc(-c2nc3cc[nH]cc-3n2)c(OCCCSC)c1 | 118 | 129 | 0.25 | 0.41 |  |  |  |
| COc1cccc(-c2nc3cc[nH]cc-3n2)c1OC | 102 | 90 | 0.03 | -0.14 |  |  |  |
| COc1ccc(-c2nc3cc[nH]cc-3n2)cc1OC | 164 | 252 | 0.89 | 2.11 | 15 | 0.4 | -9 |
| COc1ccc(-c2nc3cc[nH]cc-3n2)c(SC)c1 | 114 | 204 | 0.19 | 1.44 |  |  |  |
| CSc1ccc(-c2nc3ccc[nH]c-3n2)cc1 |  |  |  |  | 27 | 1.9 | -7 |
| CCCCCOc1cc(OC)ccc1-c1nc2cc[nH]cc-2n1 | 105 | 81 | 0.07 | -0.26 |  |  |  |
| CCCOc1cc(SC)ccc1-c1nc2cc[nH]cc-2n1 |  |  |  |  | -3 | 1.2 | -62 |
| CCCSc1ccc(-c2nc3cc[nH]cc-3n2)c(OC)c1 | 125 | 139 | 0.35 | 0.54 |  |  |  |
| COc1cc(SC)ccc1-c1nc2cc[nH]cc-2n1 | 143 | 142 | 0.6 | 0.59 | 9 | 0.2 | -17 |
| COc1cc(-c2nc3cc[nH]cc-3n2)ccc1[S+](C)[O-] (stereo unspecified) | 111 | 154 | 0.15 | 0.75 |  |  |  |
| CCOc1cc(SC)ccc1-c1nc2cc[nH]cc-2n1 | 122 | 149 | 0.3 | 0.68 |  |  |  |
| c1ccc(-c2nc3ccc[nH]c-3n2)cc1 | 101 | 112 | 0.01 | 0.15 | 7 | 8 | -36 |
| Clc1cc(Cl)cc(-c2nc3cc[nH]cc-3n2)c1 | 115 | 146 | 0.21 | 0.64 |  |  |  |
| CCSc1ccc(-c2nc3cc[nH]cc-3n2)c(OC)c1 | 136 | 196 | 0.5 | 1.33 |  |  |  |
| COc1ccc(-c2nc3cc[nH]cc-3n2)c([S+](C)[O-])c1 (stereo unspecified) | 107 | 116 | 0.1 | 0.22 |  |  |  |
| COc1cc(OCc2ccccc2)ccc1-c1nc2cc[nH]cc-2n1 | 112 | 105 | 0.17 | 0.07 |  |  |  |

| Compound | Control (Felis catus [1]) [%] | Control (Felis catus [2]) [%] | Response ratio (Felis catus [3]) | Response ratio (Felis catus [4]) | Change (Canis familiaris [5]) [%] | ED50 (Canis familiaris [6]) [mg/kg] | Change (Canis familiaris [7]) [%] |
| --- | --- | --- | --- | --- | --- | --- | --- |
| Clc1ccc(-c2nc3cc[nH]cc-3n2)c(Cl)c1 | 116 | 171 | 0.22 | 0.99 | 17 | 0.7 | -22 |
| CCCCOc1cc(OC)ccc1-c1nc2cc[nH]cc-2n1 | 100 | 140 | 0 | 0.55 |  |  |  |
| COc1ccc(OC)c(-c2nc3cc[nH]cc-3n2)c1 | 110 | 169 | 0.14 | 0.96 |  |  |  |
| COc1ccccc1-c1nc2cc[nH]cc-2n1 | 120 | 200 | 0.28 | 1.38 |  |  |  |
| COc1ccc(-c2nc3cc[nH]cc-3n2)c(C)c1 | 119 | 145 | 0.26 | 0.63 |  |  |  |
| COc1ccc(-c2nc3cc[nH]cc-3n2)c(OCC[S+]([O-])c2ccccc2)c1 (stereo unspecified) | 107 | 96 | 0.1 | -0.05 |  |  |  |
| COc1cc(F)ccc1-c1nc2cc[nH]cc-2n1 | 120 | 142 | 0.28 | 0.58 |  |  |  |
| Fc1ccccc1-c1nc2cc[nH]cc-2n1 | 107 | 145 | 0.1 | 0.63 |  |  |  |
| Cc1cccc(-c2nc3ccc[nH]c-3n2)c1 |  |  |  |  | 18 | 2.8 | -27 |
| COc1ccc(-c2nc3ccc[nH]c-3n2)cc1OC | 103 | 116.5 | 0.04 | 0.22 |  |  |  |
| COc1cc(OC)c(-c2nc3cc[nH]cc-3n2)c(OC)c1 | 103 | 137 | 0.04 | 0.51 |  |  |  |
| CC[S+]([O-])c1ccc(-c2nc3cc[nH]cc-3n2)c(OC)c1 (stereo unspecified) | 136 | 170 | 0.5 | 1 |  |  |  |
| COc1cccc(-c2nc3cc[nH]cc-3n2)c1 | 115 | 214 | 0.21 | 1.58 |  |  |  |
| Fc1ccc(-c2nc3cc[nH]cc-3n2)cc1 | 105 | 163 | 0.06 | 0.87 |  |  |  |
| COc1cc(Br)ccc1-c1nc2cc[nH]cc-2n1 | 134 | 175 | 0.47 | 1.04 |  |  |  |
| COc1cc(I)ccc1-c1nc2cc[nH]cc-2n1 | 139 | 159 | 0.54 | 0.82 |  |  |  |
| CCOc1cc(OC)ccc1-c1nc2cc[nH]cc-2n1 | 108 | 130 | 0.11 | 0.41 |  |  |  |
| COCCOc1cc(OC)ccc1-c1nc2cc[nH]cc-2n1 | 109 | 116 | 0.12 | 0.22 |  |  |  |
| COc1c(C)cc(-c2nc3cc[nH]cc-3n2)cc1C | 121 | 213 | 0.29 | 1.57 |  |  |  |
| CS(=O)(=O)c1ccc(-c2nc3ccc[nH]c-3n2)cc1 |  |  |  |  | 8 | 18 | -2 |
| COc1cc(N(C)C)ccc1-c1nc2cc[nH]cc-2n1 | 102 | 165 | 0.03 | 0.9 |  |  |  |
| CSc1ccc(-c2nc3cc[nH]cc-3n2)c(SC)c1 | 113 | 161 | 0.18 | 0.84 |  |  |  |
| COc1ccc(-c2nc3cc[nH]cc-3n2)c(OCCSc2ccccc2)c1 | 103 | 109 | 0.04 | 0.12 |  |  |  |
| Fc1cccc(-c2nc3cc[nH]cc-3n2)c1 | 112 | 157 | 0.17 | 0.79 |  |  |  |
| c1ccc(Sc2ccc(-c3nc4cc[nH]cc-4n3)cc2)cc1 | 122 | 124 | 0.31 | 0.33 |  |  |  |
| COc1cc(SC)ccc1-c1nc2c[nH]cnc-2n1 | 109 | 131 | 0.12 | 0.43 |  |  |  |
| COc1cc(-c2nc3cc[nH]cc-3n2)cc(OC)c1OC | 109 | 151 | 0.12 | 0.71 |  |  |  |
